Data from US9234006B2, “Compounds” (Novacta Biosystems Limited, priority 2011, dated 2016).
Counter-ions that a name gives are not always drawn. Where a SMILES comes first, the peptide text is derived from it. Bridges are numbered along the chain shown (N, C = ends). [ ]: non-standard residue; d: D form. The star is where a group is joined. ξ: configuration not given here. ξβ3hGly(cHex) = NC(CC(=O)*)C1CCCCC1; Butanoyl(3ξ-OH) = CC(O)CC(=O)*; Thr(3ξ) = CC(O)[C@H](N)C(=O)O; Dab = NCC[C@H](N)C(=O)O; Ahp = NCCCCCCC(=O)O

Columns and labels:
[1] = tested on: E. coli ATCC25922; assay: MIC susceptibility testing, broth microdilution in CaMHB; assay type: cell-based, Escherichia coli
Method in brief: (§1)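 Growth inhibition was read as MIC after inoculation with a 100-fold dilution of log-phase culture at OD600 0.2-0.3, […]. That subculture came from an 18-20 hour CaMHB overnight at 37° C, 250 rpm. Tests were duplicated.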

[2] = tested on: P. aeruginosa ATCC27853; assay: as above; assay type: cell-based, Pseudomonas aeruginosa
Method in brief: as §1

[3] = tested on: K. pneumoniae ATCC 4352; assay: as above; assay type: cell-based, Klebsiella pneumoniae
Method in brief: as §1

[4] = tested on: A. baumannii ATCC19606; assay: as above; assay type: cell-based, Acinetobacter baumannii
Method in brief: as §1

[5] = tested on: HK-2 cell line; details: 24 h incubation, resazurin reduction; Table 7A; footnote c: solubility issues noted at top concentration
Description: The renal cell toxicity of the compounds was assessed in an in vitro assay using the HK-2 cell line, an immortalized proximal tubule cell line derived from a normal human kidney. The endpoint to describe the toxicity of the compounds was the reduction of resazurin correlating with the metabolic activity of the cells.
Cells were cultured in 150 cm^2 flasks in 25 mL supplemented KSF (with 5 ng/mL EGF and 50 μg/mL BPE). Cells were maintained at 70% confluence with a maximum of 25 passages. Day 1: Media was removed and cells were washed with 10 ml DPBS. […] After 1 to 2 minutes incubation, 14 ml media was added to the flask to inactivate the trypsin. The cell suspension was transferred to a centrifuge tube and the cells pelleted at 1000 rpm for 6 minutes. The cell pellet was then resuspended in fresh media supplemented with EGF and BPE. […] 7500 cells were dispensed in each well in a volume of 160 μl and incubated at 37° C. for 24 h.
Day 2: Test compounds were prepared directly into the media. […] The microtiter plates were removed from the incubator and the media replaced with 100 μl of the dilutions of the compound solution. Every set of concentration was done in triplicate, and positive and negative controls were added to each plate. The plates were then incubated for 24 h at 37° C. with 5% CO2 in a humidified atmosphere.
Day 3: The reagent containing the resazurin (CellTiter-Blue, Promega) was diluted in PBS (1:4) and added at 20% (v/v) to each well. The plates were then incubated at 37° C. for 2 h before the fluorescent reduction product was detected.
Media only background values were subtracted before the data was analysed using GraphPad Prism. Compound concentration values were plotted as log values to enable a dose-response curve to be fitted and IC50 values determined (Table 7).
The renal cell toxicity of the additional example compounds was assessed in an in vitro assay using the HK-2 cell as described in the example above.

[6] = tested on: E. coli ATCC700928; assay: MIC susceptibility testing, broth microdilution in CaMHB; assay type: cell-based, Escherichia coli
Method in brief: as §1

[7] = tested on: E. coli NCTC12900; assay: as above; assay type: cell-based, Escherichia coli
Method in brief: as §1

[8] = tested on: E. coli NCTC9001; assay: as above; assay type: cell-based, Escherichia coli; details: Table 4A, different batches of cation-adjusted Muller-Hinton broth
Method in brief: as §1

[9] = tested on: P. aeruginosa ATCC 9721; assay: as above; assay type: cell-based, Pseudomonas aeruginosa
Method in brief: as §1

[10] = tested on: P. aeruginosa ATCC10145; assay: as above; assay type: cell-based, Pseudomonas aeruginosa
Method in brief: as §1

[11] = tested on: P. aeruginosa ATCCCRM-9027; assay: as above; assay type: cell-based, Pseudomonas aeruginosa
Method in brief: as §1

[12] = tested on: K. pneumoniae NCTC7427; assay: as above; assay type: cell-based, Klebsiella pneumoniae
Method in brief: as §1

[13] = tested on: K. pneumoniae NCTC8172; assay: as above; assay type: cell-based, Klebsiella pneumoniae
Method in brief: as §1

[14] = tested on: A. baumannii ATCCBAA-747; assay: as above; assay type: cell-based, Acinetobacter baumannii
Method in brief: as §1

[15] = tested on: A. baumannii NCTC13423; assay: as above; assay type: cell-based, Acinetobacter baumannii
Method in brief: as §1

[16] = tested on: A. baumannii NCTC7844; assay: as above; assay type: cell-based, Acinetobacter baumannii
Method in brief: as §1

[17] = tested on: A. baumannii clinical isolates and resistant strains; assay type: cell-based; details: A. baumannii
Description: (§2) The in vitro antibacterial activities of the compounds of examples 2 and 6 were evaluated against a panel of […] Gram-negative bacterial isolates alongside Colistin. The panel consisted of 100 clinical isolates of each of A. baumannii, E. coli, K. pneumoniae and P. aeruginosa. The panel represented the current epidemiology in Europe and the USA and included a number of relevant strains with defined resistant phenotypes to current clinically-used antibacterial agents. These resistant strains included 20 A. baumannii, 22 E. coli, 25 K. pneumoniae and 20 P. aeruginosa strains.
(§3) All compounds were tested up to a maximum concentration of 64 μg/mL with the exception of colistin, which was evaluated up to a maximum concentration of 16 μg/mL.

[18] = tested on: E. coli clinical isolates and resistant strains; assay type: cell-based; details: E. coli
Description: as §2, §3

[19] = tested on: K. pneumoniae clinical isolates and resistant strains; assay type: cell-based; details: K. pneumoniae
Description: as §2, §3

[20] = tested on: P. aeruginosa clinical isolates and resistant strains; assay type: cell-based; details: P. aeruginosa
Description: as §2, §3

[21] = tested on: Klebsiella pneumoniae ATCC10031; assay type: in vivo; details: neutropenic mice, thigh, K. pneumoniae ATCC10031, total daily dosage 10 mg/Kg; Table 5B
Description: Groups of 5 female specific-pathogen-free CD-1 mice weighing 22±2 g were used. The animals were made neutropenic by intraperitoneal administration of cyclophosphamide on days −4 (150 mg/kg) and −1 (100 mg/kg). […] Examples 2, 4, 5, 6, 7, 8, 10, 11 and polymyxin B were prepared in Normal Saline at 2 mg/mL and the solution was adjusted to pH 6-7 by addition of 0.1M H2SO4 or 4.2% NaHCO3 as required. Twenty-four hours after infection, the mice were euthanized humanely. The muscle of the right thigh of each animal was harvested, homogenized, serially diluted and plated on Brain Heart Infusion agar+0.5% charcoal (w/v) for CFU determination. Decrease of the total CFU of right thigh as compared to control counts at 24 hrs post-infection was determined for each dose group. […] Using the same procedure as described above, the in vivo efficacy of three compounds of the invention (Examples 2,6, and 14) was evaluated in a mouse thigh infection model of Klebsiella pneumoniae ATCC10031, using Colistin (Polymyxin E) as comparator.

[22] = tested on: K. pneumoniae ATCCBAA-1706; assay: MIC susceptibility testing, broth microdilution in CaMHB; assay type: cell-based, Klebsiella pneumoniae; details: Table 4
Method in brief: as §1

[23] = set-up: species or system rats; details: rat, in vivo, 8 mg/kg
Description: Colistin and the example compounds were prepared in saline. Compounds were introduced via the jugular canula twice a day 7 hours apart for seven days. […] The dose regimen is set out in Table 8 below.

[24] = Table 4A, different batches of cation-adjusted Muller-Hinton broth
[25] = K. pneumoniae ATCC4352, Table 4A, different batches of cation-adjusted Muller-Hinton broth
[26] = P. aeruginosa ATCC9721, Table 4A, different batches of cation-adjusted Muller-Hinton broth
[27] = P. aeruginosa AATCCRM 9027, Table 4A, different batches of cation-adjusted Muller-Hinton broth

CC(C)C[C@@H]1NC(=O)[C@@H](Cc2ccccc2)NC(=O)[C@H](CCN)NC(=O)[C@@H](NC(=O)[C@H](CCN)NC(=O)[C@@H](NC(=O)CC(C)O)C(C)O)CCNC(=O)[C@H](C(C)O)NC(=O)[C@H](CCN)NC(=O)[C@H](CCN)NC1=O (stereo partly drawn) [Example 22, 3-(R,S)-3-Hydroxybutanoyl polymyxin B nonapeptide] ({Butanoyl(3ξ-OH)}-[Thr(3ξ)][Dab][Dab][Dab][dF]L[Dab][Dab][Thr(3ξ)]; lactam 3-C)
MIC [1, 24]: 4 micrograms/mL
MIC [2, 24]: 0.5 micrograms/mL
MIC [3, 25]: 8 micrograms/mL
MIC [4, 24]: >32 micrograms/mL
IC50 HK-2 cells [5]: 500^c μg/mL

Colistin [reference compound]
MIC [1, 24]: 1 micrograms/mL
MIC [6, 24]: 0.25 micrograms/mL
MIC [7, 24]: 0.5 micrograms/mL
MIC [8]: 2 micrograms/mL
MIC [9, 26]: 0.5 micrograms/mL
MIC [10, 24]: 0.5 micrograms/mL
MIC [2, 24]: 0.5 micrograms/mL
MIC [11, 27]: 0.5 micrograms/mL
MIC [3, 25]: 0.125 micrograms/mL
MIC [12, 24]: 0.25 micrograms/mL
MIC [13, 24]: 0.5 micrograms/mL
MIC [14, 24]: 0.25 micrograms/mL
MIC [15, 24]: <0.06 micrograms/mL
MIC [16, 24]: 0.125 micrograms/mL
MIC50 Clinical isolates ([17]; clinical isolates): 2 mg/L
MIC90 Clinical isolates ([17]; clinical isolates): 2 mg/L
MIC Range Clinical isolates ([17]; clinical isolates): 0.5 to 4 mg/L
MIC50 Resistant strains ([17]; resistant strains): 2 mg/L
MIC90 Resistant strains ([17]; resistant strains): 2 mg/L
MIC Range Resistant strains ([17]; resistant strains): 1 to 4 mg/L
MIC50 Clinical isolates ([18]; clinical isolates): 2 mg/L
MIC90 Clinical isolates ([18]; clinical isolates): 2 mg/L
MIC Range Clinical isolates ([18]; clinical isolates): 0.5 to 4 mg/L
MIC50 Resistant strains ([18]; resistant strains): 1 mg/L
MIC90 Resistant strains ([18]; resistant strains): 1 mg/L
MIC Range Resistant strains ([18]; resistant strains): 0.25 to 2 mg/L
MIC50 Clinical isolates ([19]; clinical isolates): 2 mg/L
MIC90 Clinical isolates ([19]; clinical isolates): 4 mg/L
MIC Range Clinical isolates ([19]; clinical isolates): 1 to 16 mg/L
MIC50 Resistant strains ([19]; resistant strains): 2 mg/L
MIC90 Resistant strains ([19]; resistant strains): 8 mg/L
MIC50 Clinical isolates ([20]; clinical isolates): 2 mg/L
MIC90 Clinical isolates ([20]; clinical isolates): 4 mg/L
MIC Range Clinical isolates ([20]; clinical isolates): 0.25 to 4 mg/L
MIC50 Resistant strains ([20]; resistant strains): 2 mg/L
MIC90 Resistant strains ([20]; resistant strains): 2 mg/L
MIC Range Resistant strains ([20]; resistant strains): 0.5 to 2 mg/L
Mean log10 CFU reduction vs. control [21]: 2.60 log10 CFU
IC50 HK-2 cells [5]: 28^a μg/mL

CC(C)C[C@@H]1NC(=O)[C@@H](Cc2ccccc2)NC(=O)[C@H](CCN)NC(=O)[C@@H](NC(=O)[C@H](CCN)NC(=O)[C@@H](NC(=O)CCCCCCN)C(C)O)CCNC(=O)[C@H](C(C)O)NC(=O)[C@H](CCN)NC(=O)[C@H](CCN)NC1=O (stereo partly drawn) [Example 19, 7-Aminoheptanoyl polymyxin B nonapeptide] (H-[Ahp][Thr(3ξ)][Dab][Dab][Dab][dF]L[Dab][Dab][Thr(3ξ)]; lactam 4-C)
MIC [1, 24]: 1 micrograms/mL
MIC [2, 24]: 0.25 micrograms/mL
MIC [3, 25]: 2 micrograms/mL
MIC [4, 24]: 16 micrograms/mL
IC50 HK-2 cells [5]: 157^c μg/mL

CC(C)C[C@@H]1NC(=O)[C@@H](Cc2ccccc2)NC(=O)[C@H](CCN)NC(=O)[C@@H](NC(=O)[C@H](CCN)NC(=O)[C@@H](NC(=O)CC(N)C2CCCCC2)C(C)O)CCNC(=O)[C@H](C(C)O)NC(=O)[C@H](CCN)NC(=O)[C@H](CCN)NC1=O (stereo partly drawn) [Example 14, [3(R,S)-3-Amino-3-cyclohexanepropanoyl] Polymyxin B Nonapeptide, Sulphate Salt] ({ξβ3hGly(cHex)}-[Thr(3ξ)][Dab][Dab][Dab][dF]L[Dab][Dab][Thr(3ξ)]; lactam 3-C)
MIC ([1]; Table 4): 0.5 micrograms/mL
MIC [1, 24]: 2 micrograms/mL
MIC ([6]; Table 4): 0.25 micrograms/mL
MIC [6, 24]: 2 micrograms/mL
MIC ([7]; Table 4): 0.5 micrograms/mL
MIC [7, 24]: 4 micrograms/mL
MIC [8]: 4 micrograms/mL
MIC ([9]; P. aeruginosa ATCC 9721, Table 4): 0.25 micrograms/mL
MIC [9, 26]: 0.25 micrograms/mL
MIC ([10]; Table 4): 0.25 micrograms/mL
MIC [10, 24]: 0.5 micrograms/mL
MIC ([2]; Table 4): 0.5 micrograms/mL
MIC [2, 24]: 0.25 micrograms/mL
MIC [11, 27]: 0.125 micrograms/mL
MIC ([11]; P. aeruginosa ATCCCRM-9027, Table 4): 0.25 micrograms/mL
MIC ([3]; K. pneumoniae ATCC 4352, Table 4): 1 micrograms/mL
MIC [3, 25]: 0.5 micrograms/mL
MIC [22]: 0.25 micrograms/mL
MIC ([12]; Table 4): 0.25 micrograms/mL
MIC [12, 24]: 0.5 micrograms/mL
MIC ([13]; Table 4): 1 micrograms/mL
MIC [13, 24]: >32 micrograms/mL
MIC ([4]; Table 4): 0.5 micrograms/mL
MIC ([14]; Table 4): 0.5 micrograms/mL
MIC [14, 24]: 0.5 micrograms/mL
MIC ([15]; Table 4): 0.06 micrograms/mL
MIC [15, 24]: 0.125 micrograms/mL
MIC ([16]; Table 4): 0.5 micrograms/mL
MIC [16, 24]: 0.5 micrograms/mL
levels of the renal biomarker NAG in urine compared to Colistin at the same dose regimen [23]: significantly reduced levels
levels of the renal biomarker albumin in urine compared to Colistin at the same dose regimen [23]: significantly reduced levels
levels of the renal biomarker cystatin C in urine compared to Colistin at the same dose regimen [23]: significantly reduced levels
